Source: US8940738B2, “Pyrimidone compounds” (Mitsubishi Tanabe Pharma Corporation, priority 2009, dated 2015)

Target: bovine cerebral TPK1 (Bos taurus, UniProt A0A059UE90)
Test: Inhibitory activity against P-GS1 phosphorylation by bovine cerebral TPK1
Format: biochemical
Conditions: P-GS1 substrate, 41.7 μM [γ-32P] ATP, 25° C., 2 hours
Protocol: Experiment 1: Inhibitory Activity of the Medicament of the Present Invention Against P-GS1 Phosphorylation by Bovine Cerebral TPK1
A mixture containing 100 mM MES-sodium hydroxide (pH 6.5), 1 mM magnesium acetate, 0.5 mM EGTA, 5 mM β-mercaptoethanol, 0.02% Tween 20, 10% glycerol, 12 μg/ml P-GS1, 41.7 μM [γ^−32P] ATP (68 kBq/ml), bovine cerebral TPK1 and a compound shown in Table (a final mixture contained 1.7% DMSO deriving from a solution of a test compound prepared in the presence of 10% DMSO) was used as a reaction system. The phosphorylation was started by adding ATP, and the reaction was conducted at 25° C. for 2 hours, and then stopped by adding 21% perchloric acid on ice cooling. The reaction mixture was centrifuged at 12,000 rpm for 5 minutes and adsorbed on P81 paper (Whatmann), and then the paper was washed four times with 75 mM phosphoric acid, three times with water and once with acetone. The paper was dried, and the residual radioactivity was measured using a liquid scintillation counter.

bovine cerebral TPK1, sequence (A0A059UE90 1-419): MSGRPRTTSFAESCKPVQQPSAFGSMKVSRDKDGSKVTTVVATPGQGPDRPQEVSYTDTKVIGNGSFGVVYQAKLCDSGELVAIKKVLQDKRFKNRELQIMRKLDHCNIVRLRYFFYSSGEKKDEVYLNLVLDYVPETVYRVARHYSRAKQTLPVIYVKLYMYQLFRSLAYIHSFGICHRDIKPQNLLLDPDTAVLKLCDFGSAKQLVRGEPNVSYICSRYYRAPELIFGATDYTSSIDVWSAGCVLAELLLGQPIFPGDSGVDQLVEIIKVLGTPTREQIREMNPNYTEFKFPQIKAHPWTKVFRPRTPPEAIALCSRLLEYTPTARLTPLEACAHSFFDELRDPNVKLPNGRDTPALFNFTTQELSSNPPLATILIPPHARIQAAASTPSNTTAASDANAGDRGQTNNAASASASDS

Row | Compound | IC50 [µM]
1 | Cn1c(N2CCO[C@@H](c3ccc(F)cc3)C2)nc(-c2ncncc2F)cc1=O [Compound 1, (S)-5′-fluoro-2-[2-(4-fluoro-phenyl)-morpholin-4-yl]-1-methyl-1H-[4,4′]bipyrimidinyl-6-one] | 0.0155
2 | Cn1c(N2CCNC(c3ccc(C#N)cc3)C2)nc(-c2ncncc2F)cc1=O (centres unmarked) [Compound 6, 4-[4-(5′-Fluoro-1-methyl-6-oxo-1,6-dihydro-[4,4′]bipyrimidinyl-2-yl)-piperazin-2yl]-benzonitrile] | 0.0101
